Results published in article PMC11208149, “Structure of plant photosystem I in a native assembly state defines PsaF as a regulatory checkpoint” (Nature Plants, 2024).

Assays:
[1] = biological target: T1, mature PSI (Avena sativa, UniProt A0A3G1AUL2+A0A3G1AZK6); test: cryo-EM structure ([…] Å); type: binding
T1 construct: gene psaA; native PSI-LHCI complex purified from mature green leaves, detergent-solubilised; with Photosystem I iron-sulfur center; Photosystem I reaction center subunit II, chloroplastic; Photosystem I reaction center subunit IV, chloroplastic; Photosystem I reaction center subunit III, chloroplastic; Photosystem I reaction center subunit V, chloroplastic; Photosystem I reaction center subunit VI, chloroplastic; Photosystem I reaction center subunit VIII; Photosystem I reaction center subunit IX; Photosystem I reaction center subunit psaK, chloroplastic; Photosystem I reaction center subunit XI, chloroplastic; Photosystem I reaction center subunit N, chloroplastic

[2] = biological target: T2, pre-PSI-1 (PSI assembly intermediate) (Avena sativa, UniProt A0A3G1AUL2+A0A3G1AZK6); test: cryo-EM structure ([…] Å); type: binding; details: native cofactor; site PQN844 of PsaA
T2 construct: gene psaA; native eight-subunit complex from thylakoids of greening seedlings (10 h light), DDM-solubilised; lacks PsaF, PsaG, PsaJ, PsaK, PsaN and LHCI; with Photosystem I iron-sulfur center; Photosystem I reaction center subunit II, chloroplastic; Photosystem I reaction center subunit IV, chloroplastic; Photosystem I reaction center subunit VI, chloroplastic; Photosystem I reaction center subunit VIII; Photosystem I reaction center subunit XI, chloroplastic
T2 sequence (A0A3G1AUL2 1-750): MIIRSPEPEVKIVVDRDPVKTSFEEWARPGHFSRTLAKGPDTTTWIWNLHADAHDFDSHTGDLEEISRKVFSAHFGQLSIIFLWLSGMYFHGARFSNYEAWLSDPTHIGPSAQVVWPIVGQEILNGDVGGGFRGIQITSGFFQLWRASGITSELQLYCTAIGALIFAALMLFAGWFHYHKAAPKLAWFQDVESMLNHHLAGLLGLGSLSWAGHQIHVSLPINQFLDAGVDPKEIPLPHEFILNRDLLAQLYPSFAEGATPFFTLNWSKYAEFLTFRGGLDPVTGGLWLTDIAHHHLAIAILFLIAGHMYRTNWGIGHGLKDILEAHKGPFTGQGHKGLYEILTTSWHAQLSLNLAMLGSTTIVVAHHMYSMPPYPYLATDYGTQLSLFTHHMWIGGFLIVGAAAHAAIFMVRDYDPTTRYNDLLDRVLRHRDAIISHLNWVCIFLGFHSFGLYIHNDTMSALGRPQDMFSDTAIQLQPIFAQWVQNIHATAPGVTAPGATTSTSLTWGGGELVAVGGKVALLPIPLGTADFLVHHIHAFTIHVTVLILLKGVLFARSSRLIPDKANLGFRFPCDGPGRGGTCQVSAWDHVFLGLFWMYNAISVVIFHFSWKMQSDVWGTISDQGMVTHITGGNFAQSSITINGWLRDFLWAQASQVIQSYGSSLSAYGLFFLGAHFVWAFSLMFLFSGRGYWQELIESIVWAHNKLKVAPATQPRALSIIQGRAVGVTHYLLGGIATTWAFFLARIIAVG
T2 sequence (A0A3G1AZK6 1-734): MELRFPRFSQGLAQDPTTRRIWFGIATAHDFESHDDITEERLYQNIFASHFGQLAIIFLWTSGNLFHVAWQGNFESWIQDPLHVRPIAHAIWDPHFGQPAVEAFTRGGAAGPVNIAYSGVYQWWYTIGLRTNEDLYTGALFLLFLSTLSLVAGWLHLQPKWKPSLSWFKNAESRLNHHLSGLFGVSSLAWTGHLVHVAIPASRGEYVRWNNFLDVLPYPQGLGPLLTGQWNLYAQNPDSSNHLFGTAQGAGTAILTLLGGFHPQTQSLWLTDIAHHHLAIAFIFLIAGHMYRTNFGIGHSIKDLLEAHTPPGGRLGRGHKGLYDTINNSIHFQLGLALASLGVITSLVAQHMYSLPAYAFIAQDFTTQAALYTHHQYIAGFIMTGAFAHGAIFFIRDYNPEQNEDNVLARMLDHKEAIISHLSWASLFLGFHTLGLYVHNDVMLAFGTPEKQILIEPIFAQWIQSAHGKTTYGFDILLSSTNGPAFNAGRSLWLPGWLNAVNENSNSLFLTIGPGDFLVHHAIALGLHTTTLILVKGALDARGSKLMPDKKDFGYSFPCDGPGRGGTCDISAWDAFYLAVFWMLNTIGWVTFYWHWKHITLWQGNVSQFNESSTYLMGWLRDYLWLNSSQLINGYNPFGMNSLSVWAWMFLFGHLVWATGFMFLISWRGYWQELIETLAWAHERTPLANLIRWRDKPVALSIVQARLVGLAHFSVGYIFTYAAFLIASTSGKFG
T2 sequence (A0A3G1ATU7 2-81 partner): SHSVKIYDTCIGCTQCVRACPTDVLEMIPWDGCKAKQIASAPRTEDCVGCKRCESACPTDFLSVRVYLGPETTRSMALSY
T2 sequence (A0A3G1AZM6 1-36 partner): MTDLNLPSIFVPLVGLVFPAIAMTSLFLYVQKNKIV

T1 sequence (A0A3G1AUL2 1-750): as the sequence (A0A3G1AUL2 1-750) above
T1 sequence (A0A3G1AZK6 1-734): as the sequence (A0A3G1AZK6 1-734) above
T1 sequence (A0A3G1ATU7 2-81 partner): as the sequence (A0A3G1ATU7 2-81 partner) above
T1 sequence (A0A3G1AZM6 1-36 partner): as the sequence (A0A3G1AZM6 1-36 partner) above
T1 sequence (A0A3G1AZP2 1-42 partner): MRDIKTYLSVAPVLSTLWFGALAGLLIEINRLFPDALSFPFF

Question: With `CC1=C(/C=C/C(C)=C/C=C/C(C)=C/C=C/C=C(C)/C=C/C=C(C)/C=C/C2=C(C)CCCC2(C)C)C(C)(C)CCC1` [BCR, β-carotene] as the compound, how does the “cryo-EM structure (2.2 Å)” value ([1]; native pigment, site BCR856, near the PSI core - LHCI interface) read?
Answer: the head group of β-carotene BCR856 resides in the mature structure

Question: How did the “cryo-EM structure (2.1 Å)” value [2] turn out when `CC1=C(C/C=C(\C)CCC[C@H](C)CCC[C@H](C)CCCC(C)C)C(=O)c2ccccc2C1=O` [PQN, phylloquinone] was run?
Answer: phylloquinone PQN844 (PsaA) shows an altered conformation of the isoprenoid chain

Question: What about the “cryo-EM structure (2.2 Å)” value ([1]; native cofactor, site PQN844 of PsaA) of the same compound?
Answer: phylloquinone PQN844 (PsaA) shows an altered conformation of the isoprenoid chain
